Assay results taken from ChEMBL document CHEMBL3507680, “University of Dundee, Gates Library screen for HepG2 cell viability”.

Experiment: Human HepG2 cell viability assay in 384 well format
Assay type: toxicity, cell-based
Design: dose 125 nL, time 70.5 hour; cytotoxicity at 70.5 h: concentration not given beside the values
Conditions: HepG2 cells, read-out: Inhibition

SMILES | cytotoxicity at 70.5 h [%]
CCCOc1ccc(CNC(=O)N2CCC(C(N)=O)C2)cc1 (stereo not given) | -0.602
Cc1cc(C)c2c(N3CCN(Cc4ncccc4C)CC3)ncnc2n1 | -8.35
CN(Cc1ccccc1)C1(C(=O)NC(C)(C)CO)Cc2ccccc2C1 | 2.66
COc1cc(C2CC(=O)c3c(O)cc(O)cc3O2)ccc1O (stereo not given) | -8.7
COc1ccc2cnn(CC(=O)NC3CCCC3)c(=O)c2c1OC | 2.71
COc1ccccc1OC1CCN(c2nccc(N)n2)CC1 | 19.5
CN(C)c1cc(C(=O)N2CCCCCC2)ccn1 | -8.97
Cc1ccc(-c2cc(C(=O)NCCCc3csc(N)n3)[nH]n2)o1 | 1.47
CCCN1CCCC2(CCN(S(=O)(=O)c3cccnc3)C2)C1=O (stereo not given) | 2.74
CCNC(=O)NCc1ccc(-n2ccc(C(F)(F)F)n2)cc1 | -3.86
CC(=O)NCCNC(=O)CN1CCN(Cc2nccn2C)C(C)C1 (stereo not given) | -2.6
CC(=O)N1CCS(=O)(=O)[C@@H]2CCN(S(=O)(=O)CC(C)C)CC[C@@H]21 | -6.44
O=c1c2sccc2nc2n1CCN(Cc1ccc(F)c(F)c1)CC2 | -9.83
CCN1C(=O)CC(c2cnn(C)c2)C12CCN(C(=O)c1ccoc1)CC2 (stereo not given) | -0.434
CC(=O)NCc1nn(C)c2c1CN(Cc1ccsc1)C2 | -6.78
CCC[C@@H]1CN(C(=O)c2ccccc2C(C)=O)C[C@H]1N(C)C | 7.99
Cc1nccnc1C1CCN(C2CCCC2O)CC1 (stereo not given) | -0.726
Cc1cc(CN(C)C(=O)NC2CCN(C3CC3)CC2)no1 | -3
CCOc1c(C(N)=O)cn(C)c1-c1nc2cc(NC(C)=O)ccc2n1C | -19.2
Cc1cn2c(n1)CCC(NC(=O)CCC1CC1)C2 (stereo not given) | -3.09
O=C(NCc1nnc2n1CCCCC2)N1CCc2ccccc2C1 | 1.11
CCN(CCn1cccn1)C(=O)CN1C(=O)OC[C@@H]1c1ccccc1 | -6.78
CCC(=O)NCC1(O)CCC(C(C)(C)C)CC1 (stereo not given) | -4.59

SMILES | cytotoxicity at 70.5 h [%]
Cc1ccc(OCc2nc(CNCCn3cccn3)cs2)cc1 | -2.86
COC(=O)c1ccc(C(=O)NS(=O)(=O)c2cncc(Br)c2)cc1 | -3.96
CC1CN(Cc2ccccn2)CCN1c1ccc2nncn2n1 (stereo not given) | -0.942
COc1ccccc1CN(CCCn1ccnc1)CC1CCOC1 (stereo not given) | -4.43
COc1ccccc1N1CCCC(Nc2ncccn2)C1=O (stereo not given) | -3.79
Cc1cc(C)c(CNC(=O)N2CCN(c3nccs3)CC2)c(=O)[nH]1 | 14.3
Cc1nc(COc2ccc(N(C)S(C)(=O)=O)cc2)sc1C | 48
Cc1nc(N2CCC(C(O)c3nccn3C)CC2)c2cccnc2n1 (stereo not given) | 18.9
Cn1nnc2c1CCN(Cc1ccccc1)C2COCC1CC1 (stereo not given) | -3.64
Cc1cc(NC(C)c2nncn2C2CCCC2)n2nc(C)cc2n1 (stereo not given) | -6.24
CCn1c(CN2CCN(C(=O)C3CCC3)CC2)nc2c(F)cccc21 | 1.75
O=C(CO)N1CCN(S(=O)(=O)CCCF)CC1 | 3.01
CN(C)C(=O)[C@H]1CCS(=O)(=O)[C@@H]2CN(c3ncc(F)cn3)C[C@H]12 | 23.5
CCC[C@@H]1CN(c2ncnc3sccc23)C[C@H]1C(=O)O | -5.95
CCC(=O)NCC(=O)NCC1(O)CCC(C(C)(C)C)CC1 (stereo not given) | -7.33
CN(Cc1ccccc1)C(=O)CN1CCCC(Cn2cncn2)C1 (stereo not given) | -7.31
NC(=O)C1CCCN(C(=O)c2cccc(OCc3cscn3)c2)C1 (stereo not given) | -9.59
NCC1(c2cccc(C(F)(F)F)c2)CCCC1 | 15.4
Clc1ccccc1C1(c2ccnc(CC3CC3)n2)CCNCC1 | 4.53
COc1c(CNCc2cccc(Cn3ccnc3C)c2)c(C)nn1C | 13.2
CC(C)NC(=O)C1CN(C(=O)COc2ccccc2)CC12CCOCC2 (stereo not given) | -9.68
O=C(c1cccnc1N1CCOC(c2ccc(F)cc2)C1)N1CCCC1 (stereo not given) | -14.7
CN(C)CCN1CCN(Cc2cccc(C#N)c2)Cc2cccnc21 | -2.4

SMILES | cytotoxicity at 70.5 h [%]
O=C(COCc1nc(-c2ccncc2)no1)N1CCCCC1 | -6.97
Nc1ccnc(N2CCCC(CO)(Cc3cccc(Cl)c3)C2)n1 (stereo not given) | 6.17
CCN1CCn2c(C)cnc2C12CCN(C(=O)c1ccco1)CC2 | -4.85
O=C(NCCc1cccc(Cl)c1)C1CCOCC1 | 0.784
O=C(O)c1cncc(Cc2ccccc2F)c1 | -6.6
NC(=O)CN1CCC(NC(=O)COc2ccc(Cl)c(Cl)c2)CC1 | -2.35
CN(Cc1ccc(Cl)s1)C(=O)NCCN1CCCCCC1=O | -3.32
O=C(c1ccccn1)N1C[C@@H](OCc2cccnc2)[C@H]2OCCC[C@@H]21 | 9.73
O=C1COc2cc(C(=O)NS(=O)(=O)c3cccc(Cl)c3)ccc2N1 | -19.1
CNc1nc(C)c(C(=O)N2CCCCC2CN2CCCCCC2)s1 (stereo not given) | -17.9
CCc1nc(N)nc(NCc2cnn3cccnc23)c1C | -0.745
Cc1csc(Nc2nccnc2C2CCCN2CC(N)=O)n1 (stereo not given) | 11
Cc1nccn1CCC1CCNCC1 | -4.48
CNc1ccc(Cl)cc1C(=O)N1CCC(Cn2cc(CN)nn2)CC1 | 1.05
CC(C)c1nsc(N2CCC(OCCN3CCOCC3)CC2)n1 | -22.2
CCC1CN(CCCNS(C)(=O)=O)c2ccccc2O1 (stereo not given) | -4.06
Cc1ccc(NC(=O)N2CCCC2)c(OCC2CCCO2)c1 (stereo not given) | -16.8
Cc1[nH]c2c(F)cccc2c1CC(=O)N1CCN(C2CCSCC2)CC1 | -19.7
CCn1ccnc1CN1CCN(CC(=O)NC(C)(C#N)C2CC2)CC1 (stereo not given) | -6.12
COCCN(Cc1cccc(O)c1)Cc1ccccc1F | 1.04
CCn1nc(C)c2nc(C(C)C)nc(NCCc3ccc(O)cc3)c21 | -7.1
CN1C(=O)C(c2cccnc2)CC12CCN(C(=O)c1ccc[nH]1)CC2 (stereo not given) | 15.4
O=C(Nc1cnn(Cc2ccccc2)c1)N1CCN(CCO)CC1 | -4.22

SMILES | cytotoxicity at 70.5 h [%]
O=C(Cc1csc(-c2ccoc2)n1)NCCC(=O)N1CCCCC1 | -2.09
CN(C)C[C@]12COC[C@H]1CN(Cc1ccc3ccccc3n1)C2 | -11.7
Cc1cc(C)cc(C(=O)Nc2ccc(CC3CC(=O)NC3=O)cc2)c1 (stereo not given) | -1.28
O=C(COC1CCCC1)NS(=O)(=O)c1ccc2c(c1)OCCCO2 | -6.27
COCCN1CCC(CN(Cc2ccncc2)C2CCC2)CC1 | -6.79
CNS(=O)(=O)c1cnccc1N1CCN(C(C)C)CC1 | 2.6
O=C(N1CCOCC1)[C@@]12CCO[C@@H]1CCN(C1CCOCC1)C2 | -4.69
CCc1cnc(N2CCOC(CCOC)C2)nc1 (stereo not given) | -13.5
COc1cc(NC(=O)NC2CCCC2)ccc1N1CCOC1=O | -8.76
Cc1noc(C)c1CN(C)Cn1c(=O)oc2ccccc21 | 39.4
CC(C)(NS(C)(=O)=O)C(=O)NCc1cccc(Br)c1 | -7.07
COc1ccc(C(=O)N(C)Cc2nnc3ccccn23)c(OC)c1OC | -11.4
O=C1NCCCN1Cc1nc(-c2ccc(N3CCCCC3)cc2)no1 | -1.73
Cc1ccc(NC2CCN(C(=O)c3ccc(C(N)=O)s3)CC2)nn1 | -5.83
Cc1cccc(C(C(=O)N(C)Cc2ccco2)N(C)C)c1 (stereo not given) | 2.2
c1csc(CCNc2nc(-c3ccncc3)nc3c2CCNCC3)c1 | -6.1
CCS(=O)(=O)c1ncc(CN2CCSCC2)n1CCc1ccccc1 | -11.3
O=C(NCCc1ccccn1)N1CCOC(c2ccccc2Cl)C1 (stereo not given) | -5.38
CC(=O)NCC(=O)N1CCc2nc(-c3ccccc3)nc(C)c2CC1 | -5.16
Fc1cccnc1CN1CCCCC1c1ccn2ccnc2n1 (stereo not given) | 6.23
Cn1cnc2cc(CCC(=O)Nc3n[nH]c(C4CC4)n3)ccc21 | 17.9
CC(=O)c1cccc(NC(=O)Cn2cc(I)cn2)c1 | -9.34
O=C(NCCc1cc(N2CCOCC2)nc(NC2CC2)n1)C1CC1 | -14

SMILES | cytotoxicity at 70.5 h [%]
CC(C)N(CCNC(=O)c1ccc(S(=O)(=O)NC2CC2)cc1)C(C)C | 25.6
O=C(NCc1ccncc1)C1CN(c2nc3ccccc3s2)CCN1 (stereo not given) | -0.512
Cc1n[nH]c(C)c1C1CCCN1C(=O)NCC(=O)Nc1ccccc1 (stereo not given) | 6.46
CC(C)Nc1nc(O)cc(C2CC(=O)N(Cc3ccccc3)C2)n1 (stereo not given) | -7.01
CNC(=O)N1C[C@H]2C[C@H](C(=O)Nc3ccccc3)[C@@H](C1)O2 | -7.41
c1cc(C2CCN(C3CCCCC3)C2)n[nH]1 (stereo not given) | 2
CC(C)C(=O)NCCc1nc(-c2ccncc2)n[nH]1 | -2.41
CCc1ocnc1C(=O)N1CCN(c2nncc3ccccc23)CC1 | -19.4
CC1(C(=O)N2CCOCC2)CN(Cc2ccccn2)CCO1 (stereo not given) | 26.2
CCC[C@H]1CN(S(=O)(=O)N(C)Cc2ccccc2)C[C@@H]1N | 1.2
O=C(c1ccc(S(=O)(=O)NCC(F)F)cc1)N1C[C@H]2CNC[C@H]2C1 | -1.24
CCN(CC)C(=O)CN(C)Cc1nc2c(cnn2C)c(=O)[nH]1 | -10.6
CNC(=O)[C@@H]1C[C@H](N)CN1S(=O)(=O)c1cc(Cl)c(Cl)s1 | -2.73
COc1cc(CNC(=O)Nc2cc(C(F)(F)F)c[nH]c2=O)ccn1 | 1.69
Cc1cccc(C(C(=O)NCc2csc(-c3ncccn3)n2)N(C)C)c1 (stereo not given) | -0.325
CC(=O)N1CCCC1c1cccc(Cc2ccccc2F)n1 (stereo not given) | 35.5
Cc1csc(CN2CC(CO)Oc3ccccc32)n1 (stereo not given) | 7.51
COc1cccc(N2CCN(CC(O)c3ccc(C)cc3)CC2)c1 (stereo not given) | 3.16
CC(C)c1cc(=O)[nH]c(C(C)(C)N)n1 | -3.05
COc1cccc([C@@H]2CN(C3CCCC3)C[C@H]2C(=O)O)c1 | -2.63
Cc1ccc(NS(=O)(=O)c2cc3c(c(C(=O)O)c2)OCCO3)cc1F | -3.64
COc1cccc2c1N(CC(=O)Nc1ccc(Br)cn1)CCC2 | -3.62
CNC(=O)CC1CC2(CCN(CC3CC3)CC2)Oc2ccccc21 (stereo not given) | -6.72
